The values below come from US12214006B2, “Traditional chinese medicine ointment for preventing and treating mastitis in dairy cows, and preparation method thereof” (Hunan University of Science and Engineering, priority 2022, dated 2025).

The test system of test [1] is Escherichia coli. Kind of test: Filter paper bacteriostatic circle test, Escherichia coli. In kind it is cell-based. As to conditions: 20 μL of liquid medicine diluted by 10 times on 6.5 mm filter paper, 37° C., 24 hours. The protocol:
(§1) In order to confirm the above conjecture, the application verifies the antibacterial effect of the traditional Chinese medicine concentrated solution prepared in each embodiment, and the method is as follows: • (1) taking Staphylococcus aureus and Escherichia coli grown on ordinary nutrient agar plates, dipping a small number of colonies with an inoculating loop, inoculating colonies into 5 mL of Mueller-Hinton (MH) broth, and performing shake culture at 37° C. for 6 hours at 200 r/min; taking bacterial liquid in logarithmic growth period and diluting the bacterial liquid with sterilized physiological saline until the bacterial content is 1-2×10^8 CFU/ml; diluting with sterilized physiological saline for 1000 times for later use; • (2) making a round filter paper with a diameter of 6.5 mm with a puncher, and dry-heat sterilizing it; first, evenly inoculating the bacterial liquid obtained in step (1) into a nutrient agar culture dish, then attaching the sterilized round filter paper to the surface of agar, transferring 20 μL of liquid medicine (diluted by 10 times) with a micropipette gun, dropping the liquid medicine in the center of the round filter paper, culturing it at 37° C. for 24 hours, and measuring the diameter of the bacteriostatic circle in which different liquid medicines are dropped.

The test system of test [2] is Staphylococcus aureus. Nature of the test: Filter paper bacteriostatic circle test, Staphylococcus aureus. In kind it is cell-based. As to conditions: 20 μL of liquid medicine diluted by 10 times on 6.5 mm filter paper, 37° C., 24 hours. The protocol: as §1
The subject of test [3] is dairy cows with mastitis. Nature of the test: Therapeutic effect on dairy cows with mastitis (cure judged by sodium hydroxide curdled milk test). In kind it is in vivo. To be noted: ointments applied externally 2 g each time, twice a day for 5 days, control perfused with penicillin 100,000 IU, tested one day after stopping. An excerpt:
Fifty dairy cows with mastitis detected by Shanghai Mastitis Test (SMT) are selected from a dairy farm in Hunan Province, of which 20 cows are externally coated with the traditional Chinese medicine ointment for preventing and treating mastitis in dairy cows prepared in embodiment 1 and 20 cows are externally applied with the traditional Chinese medicine ointment for preventing and treating mastitis in dairy cows prepared in comparative example 1, with the dosage of 2 g each time, twice a day for 5 days. The remaining 10 cows are perfused with penicillin 100,000 IU after all the milk is discharged from their breasts, as a control group.
Cure standard: one day after stopping the ointments, if curdled milk is negative by the sodium hydroxide test, the cows are judged to be cured.

No end group written: not given here.

On to “FFRKVLKLIRKIWR [1 from Hunan University of Science and Engineering, preparation per CN111529683A]”, for which the “Diameter of bacteriostatic circle of Escherichia coli (mm)” value in test [1] came to 14.7 mm. Further, the “Diameter of bacteriostatic circle of Staphylococcus aureus (mm)” value in test [2] worked out at 15.3 mm.
For the substance penicillin [Control group], in test [3], the “Cure rate (%)” value amounted to 80%. The “Cows (head) with curdled milk being negative by sodium hydroxide test” value in test [3] (20, 20 and 10 cows per group) turned out to be 8 head.
